Experimental data as given in the METLIN SMRT retention time set (Domingo-Almenara et al. 2019).

Test: gradient 5% acetonitrile 3 min, to 50% in 2 min, to 85% in 15 min, held 3 min, 100 µL/min
Settings: column: Zorbax Extend-C18 2.1 x 50 mm; eluents: water / acetonitrile, 0.1% formic acid
How it was run: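 Standards, all pure, were combined into mixtures of ~100 molecules and run at 100 μL/min on a Zorbax Extend-C18 column (2.1 × 50 mm, 1.8 μm) with water and acetonitrile, each containing 0.1% formic acid. A coupled quadrupole time-of-flight mass spectrometer operated in positive and negative ionization mode. Retention time values come from computationally picked adduct peaks, each inspected manually.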

SMILES	RP-LC retention time [s]
CCCNC(=O)c1cnn(-c2cc(-c3nc(C4CC4)no3)ccn2)c1C	911
COCCC1CCN(C(=O)CCc2c(C)nn(C)c2C)CC1	616
Cn1cc(-c2cc3n(n2)CCC(=O)N3CCCC(=O)NCCCN2CCCC2)c2ccccc21	621
COC(=O)c1c(C)[nH]c(C(=O)N2CCCC(C(=O)NCc3cccnc3)C2)c1C (centres undefined)	577
CC(C)c1noc(C2CCCCN2C(=O)c2cnn3cccnc23)n1 (centres undefined)	755
COc1ccc(NC(=O)C2CN(S(=O)(=O)C3CC3)CC23CCCCC3)c(OC)c1 (centres undefined)	961
COc1ccc(-c2cc(OC)c3cc(NC(=O)c4cccs4)ccc3n2)cc1	726
OC[C@H]1O[C@@H](c2ccc(Cl)c(Cc3ccc(O[C@H]4CCOC4)cc3)c2)[C@H](O)[C@@H](O)[C@@H]1O	736
CCn1ccc2sc(C)c(C(=O)N3CCN(CC(C)C)CC3)c2c1=O	574
CN1CCCn2nc(C3CCN(S(=O)(=O)c4ccc5c(c4)OCCO5)CC3)cc2C1=O	718
COc1ccc(NC(=O)Cc2csc(NC(=O)C3CC3)n2)cc1C	706
CCc1cc(C(=O)Nc2ccc(F)c(F)c2)no1	952
O=C(Cn1cnc2c(sc3nc(-c4ccccc4)ccc32)c1=O)Nc1ccc2c(c1)OCCO2	948
CC(=O)N1CCc2cc(-c3ccc(C(=O)NCCN4CCCCCC4)cc3)ccc21	576
CCC(=O)N1CCCN(C2=NS(=O)(=O)C(c3ccc(C)c(C)c3)=C2C)CC1	766
CCCNC(=O)c1ccc(-c2nc3cc(NS(=O)(=O)c4cnc[nH]4)ccc3n2C)cc1	578
O=C(CN1C(=O)CCc2cc(Br)ccc21)N1CCN(c2ccccc2F)CC1	951
Cc1ccc(NC(=O)CN2C(=O)CCCc3cc(S(=O)(=O)N4CCCCC4)ccc32)cc1F	953
C/C(=N\NC(N)=O)c1ccc(Cl)c(-n2cccc2)c1	855
Cc1ccc(-c2noc(-c3nn(CC(=O)NC(C)C)c4ccccc34)n2)cc1	1080
CC(C)S(=O)(=O)c1cc2c(cc1NC(=O)c1ccccc1C(F)(F)F)n(C)c(=O)n2C	853
CCOC(=O)c1c(-c2cccs2)csc1NC(=O)CSc1ncn[nH]1	815
Cc1ccc(N2C(=O)C3N=NN(Cc4nc(-c5ccccc5)no4)C3C2=O)cc1C (centres undefined)	1020

SMILES	RP-LC retention time [s]
CCN1CCN(C(=O)C2CCN(S(=O)(=O)c3ccc4c(c3)sc(=O)n4CC)CC2)CC1	602
Cc1ccc(NC(=O)C2CCCN(S(=O)(=O)c3c[nH]c(C(=O)N4CCCC4)c3)C2)c(C)c1 (centres undefined)	814
CCc1nc(-c2csc(S(=O)(=O)N3CCCC(C(=O)Nc4cccc(C)n4)C3)c2)no1 (centres undefined)	869
Cc1ccc(NC(=O)C2CCCN(S(=O)(=O)c3cn(C(C)C)cn3)C2)cc1Cl (centres undefined)	879
c1ccc2c(-c3nc(-c4ccc5c(c4)ncn5CCN4CCCCC4)no3)n[nH]c2c1	609
O=C(COc1ccc(-c2nnc3n2CCCC3)cc1)N1CCc2ccccc21	790
Cc1nc2cccnc2n1C1CCN(C(=O)C2CCCCC2)C1 (centres undefined)	591
Cc1c(Cl)ccc2c(=O)c3c([nH]c12)CCN(CC(=O)Nc1cc(F)cc(F)c1)C3	664
O=C(C1CCN(S(=O)(=O)c2ccc3nc(-c4ccccc4)[nH]c3c2)CC1)N1CCCC1	699
CCn1c(=O)c2ccccc2n(Cc2nc(-c3cccc(Cl)c3)no2)c1=O	1090
CCn1c(=O)c(N2CCN(C(=O)Nc3ccc4c(c3)OCO4)CC2)nc2ccccc21	868
COc1ccc2c(c1)C1(CCN(C(=O)c3cccc(F)c3)C1)C(=O)N2 (centres undefined)	717
O=C(NC1CCCCCC1)c1ccc(Cn2cncn2)cc1	714
CCc1nc(OCC(=O)Nc2ccccc2Br)c2ccccc2n1	827
COCc1nc(C2CCN(S(=O)(=O)c3ccc(C#N)cc3)C2)no1 (centres undefined)	785
Cc1ccc(C)c(-c2cc3c(=O)n(Cc4nc(-c5ccccc5Br)no4)ncn3n2)c1	1220
O=C(c1ccc2cc[nH]c2c1)N1CCN(C(=O)c2nnn3c2COC(c2ccccc2)C3)CC1 (centres undefined)	773
CCN(CC)CCNC(=O)c1nnc(-c2ccc(S(=O)(=O)N3CCC(C)CC3)cc2)o1	696
Cc1nc(NC(=O)c2cc(C3CC3)n(C3CCS(=O)(=O)C3)n2)sc1C (centres undefined)	764
CC1CCN(c2ccc(-c3noc(CN(C)Cc4ccccc4)n3)cn2)CC1	912
O=C(Cn1cnc2ccccc2c1=O)N1CCC(c2nnc(-c3ccco3)s2)CC1	643
O=C(NC1CCCC1)N1c2ccccc2CC1c1nc(C2CC2)no1 (centres undefined)	972
O=c1ccc(N2CCC(NS(=O)(=O)c3ccc(Cl)s3)CC2)nn1CC1CC1	875

SMILES	RP-LC retention time [s]
CCn1cnc(S(=O)(=O)N2CCCC(C(=O)Nc3cccc(CN4CCCC4)c3)C2)c1 (centres undefined)	607
CCOc1ccccc1C(=O)Nc1cccn2nc(CC)nc12	1140
COc1ccc(N2CC(c3nc(-c4ccc(C(F)(F)F)cc4)no3)CC2=O)cc1OC (centres undefined)	963
Cc1cccc(CNC(=O)c2cc(N(C)C)n3nccc3n2)c1	840
Cc1nc(N2CCOCC2)c2c(C(=O)Nc3ccccc3F)c(C)oc2n1	805
CCn1c(-c2cccc(C(N)=O)c2)nc2cccnc21	591
O=C(Nc1nc(-c2ccccc2)cs1)C(=O)c1c[nH]c2ccccc12	1070
Cc1ccc(Sc2nccnc2N2CCCC(C(=O)N3CCN(c4ccccc4)CC3)C2)cc1 (centres undefined)	1220
CS(=O)(=O)N1CC(n2cc(C(=O)NCC3CC3)nn2)C1	645
CCOCC(=O)N1CCC2(CC1)C(=O)N(C)c1ccccc12	694
COc1ccc(N2CCN(C(=O)C3CC(=O)N(c4ccc5oc(C)nc5c4)C3)CC2)cc1 (centres undefined)	678
CCc1ccccc1NC(=O)C1CCC(=O)N1S(=O)(=O)c1ccc(C)c(C)c1 (centres undefined)	978
COC(=O)COc1cc(-c2cccc(Cl)c2)nc2ccc(NC(=O)C3CC3)cc12	823
CCN(CC)C(=O)c1ccc2nc(-c3ccc(C)c(C)c3)cn2c1	669
COc1ccc(C(=O)/C(Br)=C/C(=O)O)cc1	744
CCc1ccc(S(=O)(=O)N2CCN(CCc3cn(C)c4ncccc34)CC2)cc1	668
O=C(c1cn2ccccc2n1)N1CCN(Cc2cccc(F)c2)CC1	555
COC(=O)CNC(=O)N1CCc2cc(-c3ccc(C(=O)N4CCOCC4)cc3)ccc21	635
COCc1cc2nn(CC(=O)Nc3ccc(F)cc3)c(=O)n2c(-c2ccccc2)n1	903
Cc1ccc(C)c(CN2CCC(F)(c3nc(-c4cnccn4)no3)CC2)c1	650
COCCCNC(=O)C1CC(=O)N(CCc2c[nH]c3ccc(C)cc23)C1 (centres undefined)	667
Cc1ccc(CNC(=O)C2(C)CN(S(C)(=O)=O)CC(=O)N2c2ccc(Cl)cc2C)cc1 (centres undefined)	919
Cc1cc(C)n(-c2ccnc(N3CCC(C(=O)NCCN4CCOCC4)CC3)n2)n1	607

SMILES	RP-LC retention time [s]
Cc1cccc(NS(=O)(=O)c2ccc(-c3nnc(C4CCC4)o3)o2)c1C	949
CCOc1cc(=O)n2c(c1C(=O)NC1CCCC1)CCCCC2	671
CCCCN1CCN(C(=O)c2nc(N3CCSCC3)c3c(C)cc(C)nc3n2)CC1	581
Cc1nn2c(CNS(=O)(=O)c3ccc4c(c3)OCCO4)c(-c3ccccc3)nc2s1	817
Cc1ccc2cc(CN3CCC4(CC3)CC(C)(O)CCO4)c(=O)[nH]c2c1 (centres undefined)	603
O=C(c1cc2ccccc2[nH]1)N1CCC(c2noc(C3CC3)n2)C1 (centres undefined)	1440
O=C(Cn1cc(S(=O)(=O)N2CCCCCC2)ccc1=O)N1CCCc2ccccc21	900
O=C(NC1CC1)c1ccc(-n2cccn2)nc1	653
CCCNC(=O)CCc1nc2ccccc2n(CC(=O)NC(C)CC)c1=O (centres undefined)	688
CC(C)n1cnc(S(=O)(=O)N2CCCC(C(=O)Nc3cccc(C(F)(F)F)c3)C2)c1 (centres undefined)	890
Cc1ccc(C(=O)NCCn2c(C)cnc2C)s1	589
O=C(Cn1nc2n(c1=O)CCCC2)Nc1ccc(F)cc1	651
Cc1ccc(-c2ncc3c(=O)n(CC(=O)N4CCCC4)c(=O)n(C)c3n2)cc1	888
Cc1csc(-c2cc(S(=O)(=O)N3CCN(C)CC3)cn2CC(=O)N2CCCCC2)n1	654
CCCN1C(=O)Cc2ccccc2C1C(=O)NC1CCCCCC1 (centres undefined)	862
COc1ccc(-c2csc3ncnc(SCc4c(C)noc4C)c23)cc1	1030
Cc1cccc(NC(=O)C2CC(=O)N(c3ccc4c(c3)CCN4C(=O)C3CC3)C2)c1C (centres undefined)	763
Cc1ccc(NC(=O)c2sc(C)nc2C)c(Cl)c1	907
CCN1CCN(c2c(C(=O)c3ccc(C)cc3)cnc3cc(OC)c(OC)cc23)CC1	559
COc1cccc(-n2c(N3CCCC(C(=O)NC4CCCC4)C3)nc3ccsc3c2=O)c1 (centres undefined)	818
